According to the NIST ThermoML archive (doi:10.1021/je700339f):
± gives the expanded uncertainty stated by the source.

Test: xn = mol fraction of the nth substance listed
Settings: 298 K, Liquid

ClCCCCCCCl [1,6-dichlorohexane] + CC(=O)N(C)C
mass density (5000 kPa, x2 = 0.3002): 1037.9 ± 3.1 kg/m3
mass density (5000 kPa, x2 = 0.404): 1026.5 ± 3.1 kg/m3
mass density (5000 kPa, x2 = 0.4943): 1015.6 ± 3.3 kg/m3
mass density (5000 kPa, x2 = 0.6007): 1002 ± 3.3 kg/m3
mass density (5000 kPa, x2 = 0.7006): 988.5 ± 3.5 kg/m3
mass density (5000 kPa, x2 = 0.8012): 973.5 ± 3.7 kg/m3
mass density (5000 kPa, x2 = 0.8994): 957.6 ± 3.8 kg/m3
mass density (5500 kPa, x2 = 0.1002): 1058.2 ± 3 kg/m3
mass density (5500 kPa, x2 = 0.1985): 1049 ± 3 kg/m3
mass density (5500 kPa, x2 = 0.3002): 1038.2 ± 3.1 kg/m3
mass density (5500 kPa, x2 = 0.404): 1026.8 ± 3.1 kg/m3
mass density (5500 kPa, x2 = 0.4943): 1015.9 ± 3.3 kg/m3
mass density (5500 kPa, x2 = 0.6007): 1002.3 ± 3.3 kg/m3
mass density (5500 kPa, x2 = 0.7006): 988.9 ± 3.5 kg/m3
mass density (5500 kPa, x2 = 0.8012): 973.8 ± 3.7 kg/m3
mass density (5500 kPa, x2 = 0.8994): 957.9 ± 3.8 kg/m3
mass density (6000 kPa, x2 = 0.1002): 1058.6 ± 3 kg/m3
mass density (6000 kPa, x2 = 0.1985): 1049.3 ± 3 kg/m3
mass density (6000 kPa, x2 = 0.3002): 1038.5 ± 3.1 kg/m3
mass density (6000 kPa, x2 = 0.404): 1027.1 ± 3.1 kg/m3
mass density (6000 kPa, x2 = 0.4943): 1016.3 ± 3.3 kg/m3
mass density (6000 kPa, x2 = 0.6007): 1002.6 ± 3.4 kg/m3
mass density (6000 kPa, x2 = 0.7006): 989.1 ± 3.5 kg/m3
mass density (6000 kPa, x2 = 0.8012): 974.2 ± 3.7 kg/m3
mass density (6000 kPa, x2 = 0.8994): 958.2 ± 3.9 kg/m3
mass density (6500 kPa, x2 = 0.1002): 1058.9 ± 3 kg/m3
mass density (6500 kPa, x2 = 0.1985): 1049.6 ± 3 kg/m3
mass density (6500 kPa, x2 = 0.3002): 1038.9 ± 3.1 kg/m3
mass density (6500 kPa, x2 = 0.404): 1027.4 ± 3.1 kg/m3
mass density (6500 kPa, x2 = 0.4943): 1016.6 ± 3.3 kg/m3
mass density (6500 kPa, x2 = 0.6007): 1002.9 ± 3.3 kg/m3
mass density (6500 kPa, x2 = 0.7006): 989.5 ± 3.5 kg/m3
mass density (6500 kPa, x2 = 0.8012): 974.4 ± 3.7 kg/m3
mass density (6500 kPa, x2 = 0.8994): 958.5 ± 3.8 kg/m3
mass density (7000 kPa, x2 = 0.1002): 1059.3 ± 3 kg/m3
mass density (7000 kPa, x2 = 0.1985): 1049.9 ± 3 kg/m3
mass density (7000 kPa, x2 = 0.3002): 1039.2 ± 3.1 kg/m3
mass density (7000 kPa, x2 = 0.404): 1027.7 ± 3.1 kg/m3
mass density (7000 kPa, x2 = 0.4943): 1016.9 ± 3.3 kg/m3
mass density (7000 kPa, x2 = 0.6007): 1003.3 ± 3.4 kg/m3
mass density (7000 kPa, x2 = 0.7006): 989.7 ± 3.5 kg/m3
mass density (7000 kPa, x2 = 0.8012): 974.7 ± 3.7 kg/m3
mass density (7000 kPa, x2 = 0.8994): 958.8 ± 3.8 kg/m3
mass density (7500 kPa, x2 = 0.1002): 1059.6 ± 3 kg/m3
mass density (7500 kPa, x2 = 0.1985): 1050.2 ± 3 kg/m3
mass density (7500 kPa, x2 = 0.3002): 1039.5 ± 3.1 kg/m3
mass density (7500 kPa, x2 = 0.404): 1028.1 ± 3.1 kg/m3
mass density (7500 kPa, x2 = 0.4943): 1017.2 ± 3.3 kg/m3
mass density (7500 kPa, x2 = 0.6007): 1003.6 ± 3.3 kg/m3
mass density (7500 kPa, x2 = 0.7006): 990.1 ± 3.5 kg/m3
mass density (7500 kPa, x2 = 0.8012): 975 ± 3.7 kg/m3
mass density (7500 kPa, x2 = 0.8994): 959 ± 3.8 kg/m3
mass density (8000 kPa, x2 = 0.1002): 1060 ± 3 kg/m3
mass density (8000 kPa, x2 = 0.1985): 1050.6 ± 3 kg/m3
mass density (8000 kPa, x2 = 0.3002): 1039.9 ± 3.1 kg/m3
mass density (8000 kPa, x2 = 0.404): 1028.4 ± 3.2 kg/m3
mass density (8000 kPa, x2 = 0.4943): 1017.4 ± 3.3 kg/m3
mass density (8000 kPa, x2 = 0.6007): 1003.9 ± 3.3 kg/m3
mass density (8000 kPa, x2 = 0.7006): 990.4 ± 3.5 kg/m3
mass density (8000 kPa, x2 = 0.8012): 975.4 ± 3.7 kg/m3
mass density (8000 kPa, x2 = 0.8994): 959.4 ± 3.9 kg/m3
mass density (8500 kPa, x2 = 0.1002): 1060.3 ± 3 kg/m3
mass density (8500 kPa, x2 = 0.1985): 1050.9 ± 3 kg/m3
mass density (8500 kPa, x2 = 0.3002): 1040.2 ± 3.1 kg/m3
mass density (8500 kPa, x2 = 0.404): 1028.7 ± 3.1 kg/m3
mass density (8500 kPa, x2 = 0.4943): 1017.8 ± 3.3 kg/m3
mass density (8500 kPa, x2 = 0.6007): 1004.2 ± 3.4 kg/m3
mass density (8500 kPa, x2 = 0.7006): 990.6 ± 3.5 kg/m3
mass density (8500 kPa, x2 = 0.8012): 975.7 ± 3.7 kg/m3
mass density (8500 kPa, x2 = 0.8994): 959.7 ± 3.9 kg/m3
mass density (9000 kPa, x2 = 0.1002): 1060.6 ± 3 kg/m3
mass density (9000 kPa, x2 = 0.1985): 1051.2 ± 3 kg/m3
mass density (9000 kPa, x2 = 0.3002): 1040.6 ± 3.1 kg/m3
mass density (9000 kPa, x2 = 0.404): 1029.1 ± 3.2 kg/m3
mass density (9000 kPa, x2 = 0.4943): 1018.1 ± 3.3 kg/m3
mass density (9000 kPa, x2 = 0.6007): 1004.5 ± 3.3 kg/m3
mass density (9000 kPa, x2 = 0.7006): 991 ± 3.5 kg/m3
mass density (9000 kPa, x2 = 0.8012): 976 ± 3.7 kg/m3
mass density (9000 kPa, x2 = 0.8994): 960 ± 3.9 kg/m3
mass density (9500 kPa, x2 = 0.1002): 1061 ± 3 kg/m3
mass density (9500 kPa, x2 = 0.1985): 1051.6 ± 3 kg/m3
mass density (9500 kPa, x2 = 0.3002): 1040.9 ± 3.1 kg/m3
mass density (9500 kPa, x2 = 0.404): 1029.4 ± 3.2 kg/m3
mass density (9500 kPa, x2 = 0.4943): 1018.5 ± 3.3 kg/m3
mass density (9500 kPa, x2 = 0.6007): 1004.8 ± 3.4 kg/m3
mass density (9500 kPa, x2 = 0.7006): 991.2 ± 3.5 kg/m3
mass density (9500 kPa, x2 = 0.8012): 976.3 ± 3.7 kg/m3
mass density (9500 kPa, x2 = 0.8994): 960.3 ± 3.9 kg/m3
mass density (10000 kPa, x2 = 0.1002): 1061.4 ± 3 kg/m3
mass density (10000 kPa, x2 = 0.1985): 1052 ± 3 kg/m3
mass density (10000 kPa, x2 = 0.3002): 1041.3 ± 3.1 kg/m3
mass density (10000 kPa, x2 = 0.404): 1029.8 ± 3.2 kg/m3
